From patent US8481527B2, “Benzamide derivatives as bradykinin antagonists” (Richter Gedeon Nyrt., priority 2006, dated 2013)
Structures can show the parent of a compound that is named as a salt.

Assays:
[1] = biological target: T1, recombinant human B1 receptors (Homo sapiens, UniProt P46663); experiment: Functional assay: antagonist potency by cytosolic calcium measurement in CHO-B1 cells (agonist LysDABK); format: cell-based; details: CHO-B1 cells, LysDABK at EC80, fluo-4 [Ca2+]i; read-out: B1 func.
T1 construct: host or cells: CHO (CHO-B1)
T1 sequence (P46663 1-353): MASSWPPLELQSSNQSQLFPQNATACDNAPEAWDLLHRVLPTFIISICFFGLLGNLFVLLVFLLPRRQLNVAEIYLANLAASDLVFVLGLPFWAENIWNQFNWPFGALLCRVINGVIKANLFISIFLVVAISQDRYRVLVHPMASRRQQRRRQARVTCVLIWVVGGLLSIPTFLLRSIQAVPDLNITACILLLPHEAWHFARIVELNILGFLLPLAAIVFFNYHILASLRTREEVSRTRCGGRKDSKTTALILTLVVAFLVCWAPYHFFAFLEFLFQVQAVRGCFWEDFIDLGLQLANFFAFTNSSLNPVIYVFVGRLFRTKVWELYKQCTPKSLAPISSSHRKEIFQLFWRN
Description: Assessment of Antagonist Potency at B1 and B2 Receptors In Vitro by Measurement of Cytosolic Calcium Ion Concentration with a Plate Reader Fluorimeter in Cells Expressing Recombinant Human B1 or B2 Receptors
Chinese hamster ovary (CHO) cells stably expressing recombinant human B1 (CHO-B1, Euroscreen) or B2 (CHO-B2, Perkin-Elmer) receptors were cultured in Dulbecco's Modified Eagle's Medium (DMEM) containing 10% Fetal Calf Serum (FCS), 100 U/ml penicillin, 0.1 mg/ml streptomycin, 0.25 μg/ml amphotericin B, 1% Minimum Essential Medium Eagle (MEM), non essential amino acid solution, 600 μg/ml G418, 1% pyruvate (for the B2 cell line). Cells were kept at 37° C. in a humidified incubator in an atmosphere of 5% CO2/95% air and were passaged 1:4 three times a week. Cells were plated at 1.5-2.5×10^4 cell/well on standard 96-well microplates, measurements of cytosolic calcium ion concentration ([Ca^2+]i) were carried out 1-2 days after cell plating.
Measurements of [Ca^2+]i were carried out on CHO-B1 and CHO-B2 cells stably expressing human B1 and B2 receptors, respectively. Cells were grown in standard 96-well microplates and before the measurement were loaded with a fluorescent Ca^2+-sensitive dye, fluo-4/AM (2 μM): after removing the culture medium the dye was added to the cells (dissolved in assay buffer: 145 mM NaCl, 5 mM KCl, 2 mM MgCl2, 2 mM CaCl2, 10 mM HEPES, 20 mM D-glucose, 2 mM probenecid, 100 μl/well) and cells were incubated at 37° C. in a humidified incubator in an atmosphere of 5% CO2/95% air for 40-120 min. To stop dye loading cells were washed twice with assay buffer. After washing, various concentrations of the test compounds (diluted in extracellular medium from a DMSO stock solution, final DMSO concentration was <0.1%) or buffer were added to each well depending on the experimental setup. After incubation at 37° C. for 20-25 min. baseline and agonist-evoked changes of [Ca^2+]i were measured column by column with a plate reader fluorimeter (Fluoroskan Ascent, Labsystems). Excitation and detection of emission was carried out from the bottom of the plate. Filters used for Fluo-4: excitation filter—485 nm, emission filter—538 nm. The whole measurement process was performed at 37° C. and was controlled by custom software. Inhibitory potency of the test compounds was assessed by measuring the reduction in the agonist-evoked [Ca^2+]i-elevation in the presence of different concentrations of the compounds. The agonists were LysDABK for CHO-B1, and bradykinin for CHO-B2 cells. Agonists were applied at an EC80 concentration, the EC80-values were derived from daily determined dose-response curves. Fluorescence data were expressed as ΔF/F (fluorescence change normalized to baseline). All treatments on a single plate were measured in multiple wells. Data from all wells with the same treatment were averaged and the average values were used for analysis. Inhibitory potency of a compound at a single concentration point was expressed as percent inhibition of the control agonist response. Sigmoidal concentration-inhibition curves were fitted to the data (derived from at least three independent experiments) and IC50-values were determined as the concentration that produces half of the maximal inhibition caused by the compound.

[2] = biological target: T2, human recombinant bradykinin B1 receptor (Homo sapiens, UniProt P46663); experiment: Human recombinant bradykinin B1 receptor binding; details: CHO cell membranes, [3H]-[Des-Arg10] Kallidin radioligand; read-out: B1 binding
T2 construct: purchased Euroscreen ES-091; host or cells: CHO cells
T2 sequence (P46663 1-353): T1 sequence (P46663 1-353)
Description: Receptor Binding Assays 1. Human Recombinant Bradykinin B1 Receptor Binding
Binding assays were carried out on human recombinant bradykinin) receptors (expressed in CHO cells) according to the Euroscreen Technical Data Sheet (Cat.No.:ES-091). 20 μg protein/tube was incubated with [3,4-prolyl-3,4-^3H(N)]-[Des-Arg^10] Kallidin as radioligand. Non specific binding was determined in the presence of 10 μM Lys-des-Arg^9-Bradykinin. The final incubation volume was 250 μl. Samples were incubated for 15 min. at 25° C. then were rapidly vacuum filtered through GF/B filters presoaked for at least 1 h in 0.5% PEI. Radioactivity was determined by liquid scintillation spectroscopy.

IC50 [1] [nM]	Ki [2] [nM]	Compound
< 20	< 20	O=C(NCC(=O)N1CCN(c2ncccn2)CC1)c1ccc(S(=O)(=O)Nc2ccccc2Oc2ccc(Cl)cc2Cl)cc1 [Example 1.7, 4-[2-(2,4-Dichloro-phenoxy)-phenylsulfamoyl]-N-[2-oxo-2-(4-pyrimidin-2-yl-piperazin-1-yl)-ethyl]-benzamide]
20 to 100	20 to 100	O=C(NCC(=O)N1CCC(O)CC1)c1ccc(S(=O)(=O)Nc2ccccc2Oc2ccccc2)cc1 [Example 2.10, N-[2-(4-Hydroxy-piperidin-1-yl)-2-oxo-ethyl]-4-(2-phenoxy-phenylsulfamoyl)-benzamide]
< 20	< 20	O=C(NCC(=O)N1CCC(N2CCCC2)CC1)c1ccc(S(=O)(=O)Nc2ccccc2Oc2ccc(Cl)cc2Cl)cc1 [Example 1.21, 4-[2-(2,4-Dichloro-phenoxy)-phenylsulfamoyl]-N-[2-oxo-2-(4-pyrrolidin-1-yl-piperidin-1-yl)-ethyl]-benzamide]
< 20	< 20	CN(C)CCCN1CCN(C(=O)CNC(=O)c2ccc(S(=O)(=O)Nc3ccccc3Oc3ccc(Cl)cc3Cl)cc2)CC1 [Example 1.10, 4-[2-(2,4-Dichloro-phenoxy)-phenylsulfamoyl]-N-{2-[4-(3-dimethylamino-propyl)-piperazin-1-yl]-2-oxo-ethyl}-benzamide]
< 20	< 20	O=C(NCC(=O)N1CCCN(CCCN2CCOCC2)CC1)c1ccc(S(=O)(=O)Nc2ccccc2Oc2ccc(Cl)cc2Cl)cc1 [Example 1.8, 4-[2-(2,4-Dichloro-phenoxy)-phenylsulfamoyl]-N-{2-[4-(3-morpholin-4-yl-propyl)-[1,4]diazepan-1-yl]-2-oxo-ethyl}-benzamide]
< 20	20 to 100	O=C(NCC(=O)N1CCCNCC1)c1ccc(S(=O)(=O)Nc2ccccc2Oc2ccccc2)cc1 [Example 11.1, N-(2-[1,4]-Diazepan-1-yl-2-oxo-ethyl)-4-(2-phenoxy-phenylsulfamoyl)-benzamide hydrochloride]
< 20	< 20	O=C(NCC(=O)N1CCCN(CCCN2CCCC2)CC1)c1ccc(S(=O)(=O)Nc2ccccc2Oc2ccc(Cl)cc2Cl)cc1 [Example 1.11, 4-[2-(2,4-Dichloro-phenoxy)-phenylsulfamoyl]-N-{2-oxo-2-[4-(3-pyrrolidin-1-yl-propyl)-[1,4]diazepan-1-yl]-ethyl}-benzamide]
< 20	< 20	NC1CCN(C(=O)CNC(=O)c2ccc(S(=O)(=O)Nc3ccccc3Oc3ccccc3)cc2)CC1 [Example 11.3, N-[2-(4-Amino-piperidin-1-yl)-2-oxo-ethyl]-4-(2-phenoxy-phenylsulfamoyl)-benzamide hydrochloride]
20 to 100	20 to 100	NC(=O)C1CCN(C(=O)CNC(=O)c2ccc(S(=O)(=O)Nc3ccccc3Oc3ccccc3)cc2)CC1 [Example 2.15, 1-{2-[4-(2-Phenoxy-phenylsulfamoyl)-benzoylamino]-acetyl}-piperidine-4-carboxylic acid amide]
< 20	< 20	O=C(NCC(=O)N1CCC(CCN2CCCC2)CC1)c1ccc(S(=O)(=O)Nc2ccccc2Oc2ccc(Cl)cc2Cl)cc1 [Example 1.6, 4-[2-(2,4-Dichloro-phenoxy)-phenylsulfamoyl]-N-{2-oxo-2-[4-(2-pyrrolidin-1-yl-ethyl)-piperidin-1-yl]-ethyl}-benzamide]
< 20	< 20	CN1CCCC(CN2CCN(C(=O)CNC(=O)c3ccc(S(=O)(=O)Nc4ccccc4Oc4ccc(Cl)cc4Cl)cc3)CC2)C1 (stereo not shown) [Example 1.5, 4-[2-(2,4-Dichloro-phenoxy)-phenylsulfamoyl]-N-{2-[4-(1-methyl-piperidin-3-ylmethyl)-piperazin-1-yl]-2-oxo-ethyl}-benzamide]
< 20	< 20	O=C(NCC(=O)N1CCN(CCN2CCCC2)CC1)c1ccc(S(=O)(=O)Nc2ccccc2C(=O)c2ccccc2)cc1 [Example 3.1, 4-(2-Benzoyl-phenylsulfamoyl)-N-{2-oxo-2-[4-(2-pyrrolidin-1-yl-ethyl)-piperazin-1-yl]-ethyl}-benzamide]
< 20	< 20	O=C(NCC(=O)N1CCN(CCCN2CCOCC2)CC1)c1ccc(S(=O)(=O)Nc2ccccc2Oc2ccc(Cl)cc2Cl)cc1 [Example 1.12, 4-[2-(2,4-Dichloro-phenoxy)-phenylsulfamoyl]-N-{2-[4-(3-morpholin-4-yl-propyl)-piperazin-1-yl]-2-oxo-ethyl}-benzamide]
< 20	< 20	N#CC1CCN(C(=O)CNC(=O)c2ccc(S(=O)(=O)Nc3ccccc3C(=O)c3ccccc3)cc2)CC1 [Example 3.5, 4-(2-Benzoyl-phenylsulfamoyl)-N-[2-(4-cyano-piperidin-1-yl)-2-oxo-ethyl]-benzamide]
< 20	< 20	O=C(NCC(=O)N1CCCCC1)c1ccc(S(=O)(=O)Nc2ccccc2C(=O)c2ccccc2)cc1 [Example 3.3, 4-(2-Benzoyl-phenylsulfamoyl)-N-(2-oxo-2-piperidin-1-yl-ethyl)-benzamide]
< 20	< 20	O=C(NCC(=O)N1CCN(CCCN2CCCC2)CC1)c1ccc(S(=O)(=O)Nc2ccccc2Oc2ccc(Cl)cc2Cl)cc1 [Example 1.4, 4-[2-(2,4-Dichloro-phenoxy)-phenylsulfamoyl]-N-{2-oxo-2-[4-(3-pyrrolidin-1-yl-propyl)-piperazin-1-yl]-ethyl}-benzamide]
< 20	< 20	O=C(NCC(=O)N1CCC(CO)CC1)c1ccc(S(=O)(=O)Nc2ccccc2Oc2ccccc2)cc1 [Example 2.22, N-[2-(4-Hydroxymethyl-piperidin-1-yl)-2-oxo-ethyl]-4-(2-phenoxy-phenylsulfamoyl)-benzamide]
< 20	< 20	O=C(NCC(=O)N1CCN(CCN2CCCC2)CC1)c1ccc(S(=O)(=O)Nc2ccccc2Oc2ccc(Cl)cc2Cl)cc1 [Example 1.1, 4-[2-(2,4-Dichloro-phenoxy)-phenylsulfamoyl]-N-{2-oxo-2-[4-(2-pyrrolidin-1-yl-ethyl)-piperazin-1-yl]-ethyl}-benzamide]
< 20	< 20	O=C(NCC(=O)N1CCNCC1)c1ccc(S(=O)(=O)Nc2ccccc2C(=O)c2ccccc2)cc1 [Example 11.7, 4-(2-Benzoyl-phenylsulfamoyl)-N-(2-oxo-2-piperazin-1-yl-ethyl)-benzamide hydrochloride]
< 20	< 20	CN(C)CCN1CCN(C(=O)CNC(=O)c2ccc(S(=O)(=O)Nc3ccccc3Oc3ccccc3)cc2)CC1 [Example 2.3, N-{2-[4-(2-Dimethylamino-ethyl)-piperazin-1-yl]-2-oxo-ethyl}-4-(2-phenoxy-phenylsulfamoyl)-benzamide]
